Experimental data as given in patent US9822130B2, “Triazolo-pyrazinyl derivatives useful as soluble guanylate cyclase activators” (Merck Sharp & Dohme Corp., priority 2014, dated 2017).

Legend:
[1] = IV Cassette PK Assay in rats; type: in vivo; settings: rat, male Wistar-Han rats, plasma, LC-MS/MS, read-out: Cassette PK T1/2 (converted)
Procedure: The results were obtained using the following the procedure:
Adult male Wistar-Han rats were fasted overnight and administered a cassette IV dose of mixture of several compounds via a previously implanted catheter in the femoral vein. Animals were allowed access to food 4 h post dose. Blood samples were collected into EDTA-containing tubes at the following time points: 0.03, 0.13, 0.25, 0.5, 1, 2, 4, 8 h post-dose. Blood samples were stored on ice until plasma was harvested by centrifugation. Plasma was transferred to a 96-well plate and stored at −20° C. until analysis. Concentrations of each compound in rat plasma were determined by LC-MS/MS following protein precipitation.

[2] = molecular target: T1, sGC α1/β1 heterodimer stably expressed in CHO-K1 cell line (CHO-K1/sGC) (Homo sapiens, UniProt Q02108+Q02153); experiment: Cell-based sGC Functional Assay (CASA Assay), cGMP generation; settings: CHO-K1/sGC cells, 1 hr at 37° C., cGMP by HTRF, presence or absence of 1 μM DETA-NO not given; for EC50: 4P fit, read-out: IP (nM) (inflection point); for Emax: read-out: % Act. (percent activation relative to maximum cGMP production of Compound A = 100%)
T1 construct: expressed in transfected cells
T1 sequence (Q02108 1-690): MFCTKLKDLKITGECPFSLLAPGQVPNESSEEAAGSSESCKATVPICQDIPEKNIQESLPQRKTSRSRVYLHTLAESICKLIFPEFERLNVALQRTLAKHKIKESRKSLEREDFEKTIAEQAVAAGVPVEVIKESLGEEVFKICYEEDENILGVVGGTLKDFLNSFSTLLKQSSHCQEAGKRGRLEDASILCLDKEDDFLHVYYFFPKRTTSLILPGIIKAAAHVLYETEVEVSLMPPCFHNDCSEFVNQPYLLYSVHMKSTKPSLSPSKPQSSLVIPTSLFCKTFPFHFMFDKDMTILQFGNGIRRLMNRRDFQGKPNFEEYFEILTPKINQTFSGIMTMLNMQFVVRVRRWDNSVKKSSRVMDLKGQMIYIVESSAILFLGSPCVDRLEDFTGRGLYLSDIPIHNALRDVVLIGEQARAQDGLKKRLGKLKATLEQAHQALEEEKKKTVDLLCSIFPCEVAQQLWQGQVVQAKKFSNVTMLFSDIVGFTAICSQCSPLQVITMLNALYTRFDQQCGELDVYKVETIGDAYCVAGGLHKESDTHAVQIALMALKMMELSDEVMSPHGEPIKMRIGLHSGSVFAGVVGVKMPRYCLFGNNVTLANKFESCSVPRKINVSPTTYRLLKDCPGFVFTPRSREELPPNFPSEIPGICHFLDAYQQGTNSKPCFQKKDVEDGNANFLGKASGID
T1 sequence (Q02153 1-619): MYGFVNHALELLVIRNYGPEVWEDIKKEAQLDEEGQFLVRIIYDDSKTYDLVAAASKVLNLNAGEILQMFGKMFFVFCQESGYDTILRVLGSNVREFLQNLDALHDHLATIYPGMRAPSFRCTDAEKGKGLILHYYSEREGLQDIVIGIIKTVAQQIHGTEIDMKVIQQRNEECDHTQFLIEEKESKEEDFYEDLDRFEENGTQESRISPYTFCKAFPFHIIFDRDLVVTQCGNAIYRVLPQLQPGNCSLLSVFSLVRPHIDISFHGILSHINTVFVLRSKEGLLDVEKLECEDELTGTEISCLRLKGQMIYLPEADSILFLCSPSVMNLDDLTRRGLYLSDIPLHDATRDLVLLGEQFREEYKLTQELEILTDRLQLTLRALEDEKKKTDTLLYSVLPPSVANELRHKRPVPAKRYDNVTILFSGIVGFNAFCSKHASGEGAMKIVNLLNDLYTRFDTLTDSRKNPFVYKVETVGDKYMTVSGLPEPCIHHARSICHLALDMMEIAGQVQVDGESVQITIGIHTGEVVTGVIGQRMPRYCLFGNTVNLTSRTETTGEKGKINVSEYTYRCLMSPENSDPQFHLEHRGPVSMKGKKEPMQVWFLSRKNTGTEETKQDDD
Procedure, shortened: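 CHO-K1 cells stably expressing human sGC α1/β1 (4×10^5/mL, 0.5 mM IBMX) were treated with compounds (2.5% DMSO final) ± 1 μM DETA-NO for 1 hr at 37° C. Intracellular cGMP measured by HTRF. Activity expressed as % of Compound A maximal cGMP; IP and maximum fold induction from 4P fit.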

SMILES | half-life [1] [h] | EC50 [2] [nM] | Emax [2] [%]
Nc1nc(-c2cn3ncnc3c(CCCC(F)(F)F)n2)nc2c1C(c1ccc(C(F)F)cn1)(C1CC1)C(=O)N2 (racemic) [Example 44B, 4-amino-5-cyclopropyl-5-(5-(difluoromethyl)pyridin-2-yl)-2-(8-(4,4,4-trifluorobutyl)-[1,2,4]triazolo[1,5-a]pyrazin-6-yl)-5H-pyrrolo[2,3-d]pyrimidin-6(7H)-one] | 3.94 | 111 | –
C[C@@]1(c2ccc(F)cc2)C(=O)Nc2nc(-c3cn4ncnc4c(CCC(F)(F)C(F)(F)F)n3)nc(N)c21 [Example 1A, (S)-4-Amino-5-(4-fluorophenyl)-5-methyl-2-(8-(3,3,4,4,4-pentafluorobutyl)-[1,2,4]triazolo[1,5-a]pyrazin-6-yl)-5H-pyrrolo[2,3-d]pyrimidin-6(7H)-one] | 3.35 | 187 | –
CC1(c2ccc(F)cn2)C(=O)Nc2nc(-c3cn4ncnc4c(CCC(F)(F)C(F)(F)F)n3)nc(N)c21 (centres unmarked) [Example 4B, 4-amino-5-(5-fluoropyridin-2-yl)-5-methyl-2-(8-(3,3,4,4,4-pentafluorobutyl)-[1,2,4]triazolo[1,5-a]pyrazin-6-yl)-5H-pyrrolo[2,3-d]pyrimidin-6(7H)-one] | 2.97 | 117 | –
CCCc1nc(-c2nc(O)c3c(n2)NC(=O)C3(c2ccc(F)c(F)c2)C2CC2)cn2ncnc12 (centres unmarked) [Example 167A, 5-cyclopropyl-5-(3,4-difluorophenyl)-4-hydroxy-2-(8-propyl-[1,2,4]triazolo[1,5-a]pyrazin-6-yl)-5H-pyrrolo[2,3-d]pyrimidin-6(7H)-one] | – | 1090 | 70
CCCc1nc(-c2nc(O)c3c(n2)NC(=O)C3(C)c2ccc(Cl)cc2)cn2nc(C)nc12 (centres unmarked) [Example 168A, 5-(4-chlorophenyl)-4-hydroxy-5-methyl-2-(2-methyl-8-propyl-[1,2,4]triazolo[1,5-a]pyrazin-6-yl)-5H-pyrrolo[2,3-d]pyrimidin-6(7H)-one] | – | 1450 | –
CC1(c2ccc(F)c(F)c2)C(=O)Nc2nc(-c3cn4ncnc4c(CCC(F)(F)C(F)(F)F)n3)nc(O)c21 (centres unmarked) [Example 169B, 5-(3,4-Difluorophenyl)-4-hydroxy-5-methyl-2-(8-(3,3,4,4,4-pentafluorobutyl)-[1,2,4]triazolo[1,5-a]pyrazin-6-yl)-5,7-dihydro-6H-pyrrolo[2,3-d]pyrimidin-6-one] | – | 111 | –
CC1(c2ccccc2F)C(=O)Nc2nc(-c3cn4ncnc4c(CCC(F)(F)C(F)(F)F)n3)nc(O)c21 (centres unmarked) [Example 170A, 5-(2-Fluorophenyl)-4-hydroxy-5-methyl-2-(8-(3,3,4,4,4-pentafluorobutyl)-[1,2,4]triazolo [1,5-a]pyrazin-6-yl)-5,7-dihydro-6H-pyrrolo [2,3-d]pyrimidin-6-one] | – | 9.5 | –
CCCCc1nc(-c2nc(O)c3c(n2)NC(=O)C3(C)c2cccc(F)c2)cn2ncnc12 (centres unmarked) [Example 171A, 2-(8-Butyl-[1,2,4]triazolo[1,5-a]pyrazin-6-yl)-5-(3-fluorophenyl)-4-hydroxy-5-methyl-5,7-dihydro-6H-pyrrolo[2,3-d]pyrimidin-6-one] | – | 137 | 90
C[C@@]1(c2ccc(F)cc2)C(=O)Nc2nc(-c3cn4ncnc4c(CCC(F)(F)C(F)(F)F)n3)ncc21 [Example 172A, (S)-5-(4-fluorophenyl)-5-methyl-2-(8-(3,3,4,4,4-pentafluorobutyl)-[1,2,4]triazolo[1,5-a]pyrazin-6-yl)-5,7-dihydro-6H-pyrrolo[2,3-d]pyrimidin-6-one] | – | 212 | –
CC(C)Cc1nc(-c2ncc3c(n2)NC(=O)[C@@]3(C)c2ccc(F)cc2)cn2ncnc12 [Example 173A, (S)-5-(4-fluorophenyl)-2-(8-isobutyl-[1,2,4]triazolo[1,5-a]pyrazin-6-yl)-5-methyl-5,7-dihydro-6H-pyrrolo[2,3-d]pyrimidin-6-one] | – | 574 | –
C[C@@]1(c2ccc(F)cc2)C(=O)Nc2nc(-c3cn4ncnc4c(CCC(F)(F)F)n3)ncc21 [Example 174A, (S)-5-(4-fluorophenyl)-5-methyl-2-(8-(3,3,3-trifluoropropyl)-[1,2,4]triazolo[1,5-a]pyrazin-6-yl)-5,7-dihydro-6H-pyrrolo[2,3-d]pyrimidin-6-one] | – | 1350 | –
CC1(c2ccc(Cl)cn2)C(=O)Nc2nc(-c3cn4ncnc4c(CCC(F)(F)C(F)(F)F)n3)ncc21 (centres unmarked) [Example 175A, 5-(5-chloropyridin-2-yl)-5-methyl-2-(8-(3,3,4,4,4-pentafluorobutyl)-[1,2,4]triazolo[1,5-a]pyrazin-6-yl)-5H-pyrrolo[2,3-d]pyrimidin-6(7H)-one] | – | 384 | –
CC1(c2ccc(F)cn2)C(=O)Nc2nc(-c3cn4ncnc4c(CCCC(F)(F)F)n3)ncc21 (centres unmarked) [Example 176B] | – | 526 | –
C[C@@]1(c2ccc(F)cc2)C(=O)Nc2nc(-c3cn4ncnc4c(CCC(F)(F)C(F)(F)F)n3)nc(C(N)=O)c21 [Example 177A, 5-(4-Fluorophenyl)-5-methyl-6-oxo-2-(8-(3,3,4,4,4-pentafluorobutyl)-[1,2,4]triazolo[1,5-a]pyrazin-6-yl)-6,7-dihydro-5H-pyrrolo[2,3-d]pyrimidine-4-carboxamide] | – | 128 | –
NC(=O)c1nc(-c2cn3ncnc3c(CCCC(F)(F)F)n2)nc2c1C(c1ccc(C(F)(F)F)cn1)(C1CC1)C(=O)N2 (centres unmarked) [Example 178A] | – | 199 | –
CC1(c2ccc(C(F)(F)F)cn2)C(=O)Nc2nc(-c3cn4ncnc4c(CCCC(F)(F)F)n3)nc(C(N)=O)c21 (centres unmarked) [Example 179B, 5-methyl-6-oxo-2-(8-(4,4,4-trifluorobutyl)-[1,2,4]triazolo[1,5-a]pyrazin-6-yl)-5-(5-(trifluoromethyl)pyridin-2-yl)-6,7-dihydro-5H-pyrrolo[2,3-d] pyrimidine-4-carboxamide] | – | 90.2 | –
CC1(c2ccc(C(F)F)cn2)C(=O)Nc2nc(-c3cn4ncnc4c(CCCC(F)(F)F)n3)nc(O)c21 (centres unmarked) [Example 181A, 4-hydroxy-5-(5-(difluoromethyl)pyridin-2-yl)-5-methyl-2-(8-(4,4,4-trifluorobutyl)-[1,2,4]triazolo[1,5-a]pyrazin-6-yl)-5H-pyrrolo[2,3-d]pyrimidin-6(7H)-one] | – | 749 | –
CC1(c2ccc(F)cc2)C(=O)Nc2nc(-c3cn4ccnc4c(CCC(F)(F)C(F)(F)F)n3)nc(N)c21 (centres unmarked) [reference compound] | 1.04 | – | –
